Legend:
Assay type in all cases: cell-based
[1] = biological target: T1, human muscarinic M1 receptors (Homo sapiens, UniProt P11229); test: IP production in A9L cells with human M1 receptors (IPOne TR-FRET), Example 28; settings: for huM1/A9L Smax: percentage of maximal stimulation by carbachol; for huM1/A9L ED50 relative to CCh*: potency relative to carbachol at its EC50, semi-quantitative; for potency and efficacy at M1 muscarinic receptors (in words): huM1/A9L
T1 construct: host or cells: A9L cells
T1 sequence (P11229 1-460): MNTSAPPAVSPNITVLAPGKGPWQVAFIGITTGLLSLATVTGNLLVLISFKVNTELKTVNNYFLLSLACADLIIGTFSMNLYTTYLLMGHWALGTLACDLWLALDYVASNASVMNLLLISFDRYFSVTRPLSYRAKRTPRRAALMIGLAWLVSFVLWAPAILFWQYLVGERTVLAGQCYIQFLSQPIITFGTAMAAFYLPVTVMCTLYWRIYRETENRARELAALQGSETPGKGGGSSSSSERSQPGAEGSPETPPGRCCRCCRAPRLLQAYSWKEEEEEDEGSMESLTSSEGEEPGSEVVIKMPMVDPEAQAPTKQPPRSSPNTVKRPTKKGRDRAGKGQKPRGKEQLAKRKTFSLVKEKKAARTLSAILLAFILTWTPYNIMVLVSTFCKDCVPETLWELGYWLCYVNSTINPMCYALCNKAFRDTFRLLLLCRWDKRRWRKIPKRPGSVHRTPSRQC
Method: (§1) Muscarinic M1 and M3 agonist activity was evaluated by measuring the stimulation of inositol phosphate (IP) production in the presence of lithium chloride from A9L cells transfected with expression plasmids containing human muscarinic M1 and M3 receptors, respectively. The cell lines were a gift from Professor W Messer, and the methods were as described in Tejada F R et al. J. Med. Chem. 2006; 49: 7518-31 except that the assay was scaled down to run in 384 well plates, and IP was measured in the cell lysates using the non-isotopic IPOne TR-FRET assay (CIS-BIO, Inc).
(§2) Cells were grown to 90% confluence in 384 well hi-base plates (Greiner Bio-One), compounds were added at suitable concentrations in growth medium containing 10 mM LiCl, buffered with an extra 10 mM HEPES (pH7.4), and incubated for 60 minutes at 37° C. Cells were lysed and assayed for IP following the manufacturer's instructions.
(§3) The value for a full agonist is 100%, while partial agonists give values below 100%.

[2] = biological target: T2, human muscarinic M3 receptors (Homo sapiens, UniProt P20309); test: IP production in A9L cells with human M3 receptors (IPOne TR-FRET), Example 28; settings: for huM3/A9L Smax: percentage of maximal stimulation by carbachol; for huM3/A9L ED50 relative to CCh*: potency relative to carbachol at its EC50, semi-quantitative
T2 construct: host or cells: A9L cells
T2 sequence (P20309 whole entry): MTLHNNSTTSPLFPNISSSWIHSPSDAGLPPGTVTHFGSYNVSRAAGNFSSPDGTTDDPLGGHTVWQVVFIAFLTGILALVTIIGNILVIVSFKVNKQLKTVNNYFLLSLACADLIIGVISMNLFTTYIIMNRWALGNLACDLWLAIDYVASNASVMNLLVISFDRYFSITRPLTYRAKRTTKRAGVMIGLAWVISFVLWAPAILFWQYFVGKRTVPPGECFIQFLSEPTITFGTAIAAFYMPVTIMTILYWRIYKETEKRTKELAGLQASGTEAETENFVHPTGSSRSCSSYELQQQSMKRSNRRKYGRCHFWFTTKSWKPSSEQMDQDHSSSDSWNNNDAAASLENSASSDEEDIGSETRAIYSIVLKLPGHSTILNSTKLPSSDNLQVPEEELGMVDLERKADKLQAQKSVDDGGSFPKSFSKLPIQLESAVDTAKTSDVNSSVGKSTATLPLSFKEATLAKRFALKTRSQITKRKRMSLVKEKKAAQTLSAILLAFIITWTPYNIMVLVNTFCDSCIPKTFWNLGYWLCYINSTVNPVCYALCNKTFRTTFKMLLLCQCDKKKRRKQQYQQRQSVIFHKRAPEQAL
Method: as §1, §2, §3

[3] = biological target: T1, human muscarinic M1 receptors; settings: relative to the potency of carbachol at its EC50
Method: (§4) Muscarinic M1 and M3 agonist activity was evaluated by measuring the stimulation of inositol phosphate (IP) production in the presence of lithium chloride from A9L cells transfected with expression plasmids containing human muscarinic M1 and M3 receptors, respectively. The cell lines were a gift from Professor William Messer, and the methods were as described in Tejada et al. (J. Med. Chem. 2006; 49: 7518-31) except that the assay was scaled down to run in 384-well plates and the concentration of inositol-1-phosphate in the lysates was determined using the non-isotopic IP-One Terbium TR-FRET assay kit (Cisbio Bioassays, cat. #62IPAPEJ) according to the manufacturer's instructions.
as §2, with “384-well high-base, small-volume” for “384 well hi-base”, “(pH=7.4),” for “(pH7.4),”
as §3

[4] = biological target: T2, human muscarinic M3 receptors; settings: relative to the potency of carbachol at its EC50
Method: as §4
as §2, with “384-well high-base, small-volume” for “384 well hi-base”, “(pH=7.4),” for “(pH7.4),”
as §3

Compound	huM1/A9L Smax [1]	huM1/A9L ED50 relative to CCh* [1]	huM3/A9L Smax [2]	huM3/A9L ED50 relative to CCh* [2]	huM1/A9L Potency relative to carbachol [3]	huM3/A9L Potency relative to carbachol [4]	potency and efficacy at M1 muscarinic receptors (in words) [1]
Nc1noc(C2CCCNC2)n1 (stereo not drawn) [Compound 27, 3-Amino-5-(piperidin-3-yl)-1,2,4-oxadiazole]	97%	+ (+ potency 2-10x CCh)	20%	+/− (+/− potency 0.5-2x CCh)	–	–	–
Cc1noc([C@@H]2CNCC[C@H]2C)n1 [Compound 23]	23%	inactive	19%	inactive	–	–	–
Cc1noc(C23CNCC2C3)n1 (racemic) [Compound 121, 5-(4,4-d2-3-Azabicyclo[3.1.0]hexan-1-yl)-3-methyl-1,2,4-oxadiazole]	–	–	–	–	1.10	0.45	–
Cc1noc([C@@H]2CCCN[C@@H]2C)n1 [Compound 24]	41%	−− (−− potency <0.1x CCh)	32%	inactive	–	–	–
Cc1noc([C@H]2CC[C@H](C)NC2)n1 [Compound 19]	15%	inactive	34%	inactive	–	–	–
Cc1noc(C2CCCN(C)C2)n1 (stereo not drawn) [Compound 5, 3-Methyl-5-(1-methylpiperidin-3-yl)-1,2,4-oxadiazole]	20%	inactive	20%	inactive	–	–	essentially inactive
Cc1noc([C@H]2CNC[C@@H](C)C2)n1 [Compound 20]	9%	inactive	20%	inactive	–	–	–
c1nsc(C2CCCNC2)n1 (stereo not drawn) [Compound 12b, 5-(piperidin-3-yl)-1,2,4-thiadiazol]	100%	− (− potency <0.5-0.1x CCh)	60%	−− (−− potency <0.1x CCh)	–	–	–
Cc1noc(C2CCC(C)NC2)n1 (stereo not drawn) [Compound 18, 3-Methyl-5-(6-methylpiperidin-3-yl)-1,2,4-oxadiazole]	14%	inactive	18%	inactive	–	–	–
Cc1nsc(C2CCCNC2)n1.Cl (stereo not drawn) [Compound 12a, 3-methyl-5-(piperidin-3-yl)-1,2,4-thiadiazole hydrochloride]	101%	+ (+ potency 2-10x CCh)	58%	+ (+ potency 2-10x CCh)	–	–	–
Cc1noc([C@@H]2CNC[C@@H](C)C2)n1 [Compound 21]	18%	inactive	14%	inactive	–	–	–
Cc1noc([C@H]2CCCN[C@@H]2C)n1 [Compound 25]	3%	inactive	20%	inactive	–	–	–
CCc1noc(C2CCCNC2)n1 (stereo not drawn) [Compound 38, 3-ethyl-5-(piperidin-3-yl)-1,2,4-oxadiazo1e]	15%	inactive	<14%	inactive	–	–	essentially inactive
Cc1noc(C2CCNC2)n1 (stereo not drawn) [Compound 31, 3-methyl-5-(pyrrolidin-3-yl)-1,2,4-oxadiazole]	113%	+ (+ potency 2-10x CCh)	60%	− (− potency <0.5-0.1x CCh)	–	–	–
Cc1noc([C@H]2CNCC[C@H]2C)n1 [Compound 22]	7%	inactive	15%	inactive	–	–	–

— patent US9403806B1, “Cognition enhancing compounds and compositions, methods of making, and methods of treating” (NeuroSolis, Inc., priority 2010, dated 2016)
